{
  "source": "the supplement of paper PMC10307832",
  "experiment_in_all_cases": "relative viability (nuclei count vs DMSO), 5 days (fraction); higher = more cells survive",
  "key": {"201T": {"test_system": "201T", "summary_of_the_method": "(§1)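 Medians of duplicate plates are given as relative viability. That measure is the nuclei count in treated wells divided by the count in vehicle wells. Counts were taken on 4× images of lung cancer cell lines in 1536-well plates, 5 days after pin-tool dosing the day after seeding with one drug alone or a fixed anchor-drug dose plus five library-drug doses (not always all listed) in √10 steps.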"}, "BEN": {"test_system": "BEN", "summary_of_the_method": "as §1"}, "EPLC-272H": {"test_system": "EPLC-272H", "summary_of_the_method": "as §1"}, "HCC-15": {"test_system": "HCC-15", "summary_of_the_method": "as §1"}, "HCC-78": {"test_system": "HCC-78", "summary_of_the_method": "as §1"}, "LCLC-97TM1": {"test_system": "LCLC-97TM1", "summary_of_the_method": "as §1"}, "LU99A": {"test_system": "LU99A", "summary_of_the_method": "as §1"}, "NCI-H1355": {"test_system": "NCI-H1355", "summary_of_the_method": "as §1"}, "NCI-H1395": {"test_system": "NCI-H1395", "summary_of_the_method": "as §1"}, "NCI-H2009": {"test_system": "NCI-H2009", "summary_of_the_method": "as §1"}, "NCI-H2085": {"test_system": "NCI-H2085", "summary_of_the_method": "as §1"}, "NCI-H2126": {"test_system": "NCI-H2126", "summary_of_the_method": "as §1"}, "NCI-H2228": {"test_system": "NCI-H2228", "summary_of_the_method": "as §1"}, "NCI-H2342": {"test_system": "NCI-H2342", "summary_of_the_method": "as §1"}, "NCI-H23": {"test_system": "NCI-H23", "summary_of_the_method": "as §1"}, "NCI-H2405": {"test_system": "NCI-H2405", "summary_of_the_method": "as §1"}, "NCI-H322M": {"test_system": "NCI-H322M", "summary_of_the_method": "as §1"}, "NCI-H460": {"test_system": "NCI-H460", "summary_of_the_method": "as §1"}, "NCI-H647": {"test_system": "NCI-H647", "summary_of_the_method": "as §1"}, "NCI-H650": {"test_system": "NCI-H650", "summary_of_the_method": "as §1"}, "NCI-H661": {"test_system": "NCI-H661", "summary_of_the_method": "as §1"}, "NCI-H838": {"test_system": "NCI-H838", "summary_of_the_method": "as §1"}, "PC-14": {"test_system": "PC-14", "summary_of_the_method": "as §1"}},
  "data": [
    {"smiles": "CN1CCN(CCOc2cc(OC3CCOCC3)c3c(Nc4c(Cl)ccc5c4OCO5)ncnc3c2)CC1", "note": "[Saracatinib] + N=C(N)NC(=N)NCCc1ccccc1 [Phenformin] (partner 250 µM)", "values": [
      {"measurement": "relative viability", "setting": "201T; first compound 0.02 µM", "value": 0.391},
      {"measurement": "relative viability", "setting": "201T; first compound 0.2 µM", "value": 0.415},
      {"measurement": "relative viability", "setting": "201T; first compound 0.6325 µM", "value": 0.422},
      {"measurement": "relative viability", "setting": "201T; first compound 2 µM", "value": 0.369},
      {"measurement": "relative viability", "setting": "BEN; first compound 0.02 µM", "value": 0.292},
      {"measurement": "relative viability", "setting": "BEN; first compound 0.6325 µM", "value": 0.253},
      {"measurement": "relative viability", "setting": "BEN; first compound 2 µM", "value": 0.209},
      {"measurement": "relative viability", "setting": "EPLC-272H; first compound 0.02 µM", "value": 0.285},
      {"measurement": "relative viability", "setting": "EPLC-272H; first compound 0.2 µM", "value": 0.327},
      {"measurement": "relative viability", "setting": "EPLC-272H; first compound 0.6325 µM", "value": 0.319},
      {"measurement": "relative viability", "setting": "EPLC-272H; first compound 2 µM", "value": 0.251},
      {"measurement": "relative viability", "setting": "HCC-15; first compound 0.02 µM", "value": 0.487},
      {"measurement": "relative viability", "setting": "HCC-15; first compound 0.2 µM", "value": 0.402},
      {"measurement": "relative viability", "setting": "HCC-15; first compound 0.6325 µM", "value": 0.417},
      {"measurement": "relative viability", "setting": "HCC-15; first compound 2 µM", "value": 0.329},
      {"measurement": "relative viability", "setting": "HCC-78; first compound 0.02 µM", "value": 0.704},
      {"measurement": "relative viability", "setting": "HCC-78; first compound 0.6325 µM", "value": 0.772},
      {"measurement": "relative viability", "setting": "HCC-78; first compound 2 µM", "value": 0.554},
      {"measurement": "relative viability", "setting": "LCLC-97TM1; first compound 0.02 µM", "value": 0.461},
      {"measurement": "relative viability", "setting": "LCLC-97TM1; first compound 0.2 µM", "value": 0.399},
      {"measurement": "relative viability", "setting": "LCLC-97TM1; first compound 0.6325 µM", "value": 0.469},
      {"measurement": "relative viability", "setting": "LCLC-97TM1; first compound 2 µM", "value": 0.413},
      {"measurement": "relative viability", "setting": "LU99A; first compound 0.02 µM", "value": 0.938},
      {"measurement": "relative viability", "setting": "LU99A; first compound 0.2 µM", "value": 0.617},
      {"measurement": "relative viability", "setting": "LU99A; first compound 0.6325 µM", "value": 0.879},
      {"measurement": "relative viability", "setting": "LU99A; first compound 2 µM", "value": 0.707},
      {"measurement": "relative viability", "setting": "NCI-H1355; first compound 0.02 µM", "value": 0.453},
      {"measurement": "relative viability", "setting": "NCI-H1355; first compound 0.2 µM", "value": 0.397},
      {"measurement": "relative viability", "setting": "NCI-H1355; first compound 0.6325 µM", "value": 0.453},
      {"measurement": "relative viability", "setting": "NCI-H1355; first compound 2 µM", "value": 0.407},
      {"measurement": "relative viability", "setting": "NCI-H1395; first compound 0.02 µM", "value": 0.434},
      {"measurement": "relative viability", "setting": "NCI-H1395; first compound 0.2 µM", "value": 0.455},
      {"measurement": "relative viability", "setting": "NCI-H1395; first compound 0.6325 µM", "value": 0.474},
      {"measurement": "relative viability", "setting": "NCI-H1395; first compound 2 µM", "value": 0.348},
      {"measurement": "relative viability", "setting": "NCI-H2009; first compound 0.02 µM", "value": 0.45},
      {"measurement": "relative viability", "setting": "NCI-H2009; first compound 0.2 µM", "value": 0.428},
      {"measurement": "relative viability", "setting": "NCI-H2009; first compound 0.6325 µM", "value": 0.389},
      {"measurement": "relative viability", "setting": "NCI-H2009; first compound 2 µM", "value": 0.334},
      {"measurement": "relative viability", "setting": "NCI-H2085; first compound 0.2 µM", "value": 0.694},
      {"measurement": "relative viability", "setting": "NCI-H2085; first compound 0.6325 µM", "value": 0.809},
      {"measurement": "relative viability", "setting": "NCI-H2085; first compound 2 µM", "value": 0.667},
      {"measurement": "relative viability", "setting": "NCI-H2126; first compound 0.02 µM", "value": 0.537},
      {"measurement": "relative viability", "setting": "NCI-H2126; first compound 0.2 µM", "value": 0.522},
      {"measurement": "relative viability", "setting": "NCI-H2126; first compound 0.6325 µM", "value": 0.524},
      {"measurement": "relative viability", "setting": "NCI-H2126; first compound 2 µM", "value": 0.473},
      {"measurement": "relative viability", "setting": "NCI-H2228; first compound 0.02 µM", "value": 0.345},
      {"measurement": "relative viability", "setting": "NCI-H2228; first compound 0.2 µM", "value": 0.327},
      {"measurement": "relative viability", "setting": "NCI-H2228; first compound 0.6325 µM", "value": 0.346},
      {"measurement": "relative viability", "setting": "NCI-H2228; first compound 2 µM", "value": 0.194},
      {"measurement": "relative viability", "setting": "NCI-H2342; first compound 0.02 µM", "value": 0.702},
      {"measurement": "relative viability", "setting": "NCI-H2342; first compound 0.2 µM", "value": 0.529},
      {"measurement": "relative viability", "setting": "NCI-H2342; first compound 0.6325 µM", "value": 0.673},
      {"measurement": "relative viability", "setting": "NCI-H2342; first compound 2 µM", "value": 0.505},
      {"measurement": "relative viability", "setting": "NCI-H23; first compound 0.02 µM", "value": 0.807},
      {"measurement": "relative viability", "setting": "NCI-H23; first compound 0.2 µM", "value": 0.631},
      {"measurement": "relative viability", "setting": "NCI-H23; first compound 0.6325 µM", "value": 0.917},
      {"measurement": "relative viability", "setting": "NCI-H23; first compound 2 µM", "value": 0.739},
      {"measurement": "relative viability", "setting": "NCI-H2405; first compound 0.02 µM", "value": 0.406},
      {"measurement": "relative viability", "setting": "NCI-H2405; first compound 0.2 µM", "value": 0.328},
      {"measurement": "relative viability", "setting": "NCI-H2405; first compound 0.6325 µM", "value": 0.304},
      {"measurement": "relative viability", "setting": "NCI-H2405; first compound 2 µM", "value": 0.185},
      {"measurement": "relative viability", "setting": "NCI-H322M; first compound 0.02 µM", "value": 0.708},
      {"measurement": "relative viability", "setting": "NCI-H322M; first compound 0.2 µM", "value": 0.694},
      {"measurement": "relative viability", "setting": "NCI-H322M; first compound 0.6325 µM", "value": 0.55},
      {"measurement": "relative viability", "setting": "NCI-H322M; first compound 2 µM", "value": 0.334},
      {"measurement": "relative viability", "setting": "NCI-H460; first compound 0.02 µM", "value": 0.534},
      {"measurement": "relative viability", "setting": "NCI-H460; first compound 0.2 µM", "value": 0.382},
      {"measurement": "relative viability", "setting": "NCI-H460; first compound 0.6325 µM", "value": 0.491},
      {"measurement": "relative viability", "setting": "NCI-H460; first compound 2 µM", "value": 0.435},
      {"measurement": "relative viability", "setting": "NCI-H647; first compound 0.02 µM", "value": 0.584},
      {"measurement": "relative viability", "setting": "NCI-H647; first compound 0.2 µM", "value": 0.362},
      {"measurement": "relative viability", "setting": "NCI-H647; first compound 0.6325 µM", "value": 0.5},
      {"measurement": "relative viability", "setting": "NCI-H647; first compound 2 µM", "value": 0.308},
      {"measurement": "relative viability", "setting": "NCI-H650; first compound 0.02 µM", "value": 0.465},
      {"measurement": "relative viability", "setting": "NCI-H650; first compound 0.2 µM", "value": 0.429},
      {"measurement": "relative viability", "setting": "NCI-H650; first compound 0.6325 µM", "value": 0.495},
      {"measurement": "relative viability", "setting": "NCI-H650; first compound 2 µM", "value": 0.461},
      {"measurement": "relative viability", "setting": "NCI-H661; first compound 0.02 µM", "value": 0.282},
      {"measurement": "relative viability", "setting": "NCI-H661; first compound 0.2 µM", "value": 0.271},
      {"measurement": "relative viability", "setting": "NCI-H661; first compound 0.6325 µM", "value": 0.233},
      {"measurement": "relative viability", "setting": "NCI-H661; first compound 2 µM", "value": 0.236},
      {"measurement": "relative viability", "setting": "NCI-H838; first compound 0.02 µM", "value": 0.645},
      {"measurement": "relative viability", "setting": "NCI-H838; first compound 0.2 µM", "value": 0.486},
      {"measurement": "relative viability", "setting": "NCI-H838; first compound 0.6325 µM", "value": 0.49},
      {"measurement": "relative viability", "setting": "NCI-H838; first compound 2 µM", "value": 0.379},
      {"measurement": "relative viability", "setting": "PC-14; first compound 0.02 µM", "value": 0.646},
      {"measurement": "relative viability", "setting": "PC-14; first compound 0.2 µM", "value": 0.441},
      {"measurement": "relative viability", "setting": "PC-14; first compound 0.6325 µM", "value": 0.256},
      {"measurement": "relative viability", "setting": "PC-14; first compound 2 µM", "value": 0.124}
    ]}
  ]
}
